Experimental findings from patent US20260327214A1, “1,3,4-OXADIAZOLE DERIVATIVE COMPOUNDS AS HISTONE DEACETYLASE 6 INHIBITOR, AND USES THEREOF” (CHONG KUN DANG PHARMACEUTICAL CORP., priority 2022, published 2026) are described below.

For experiment [1], the target named is T1, human recombinant HDAC1 (Homo sapiens, UniProt Q13547).
T1 construct: purchased Enzo Life Science BML-SE456
As to the kind of experiment: HDAC1 enzyme activity inhibition test (HDAC Fluorometric Drug Discovery Kit). Type of experiment: biochemical. Conditions: 30° C., 60 minutes, 10 μM substrate. In a few lines: (§1)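 IC50 derived from fluorescence (Ex 360, Em 460) following 30 min development with Developer II. Each reaction held 0.3 μg human recombinant HDAC1 or HDAC6, 10 μM Fluor de Lys SIRT1 substrate and 5-fold serially diluted compound, incubated 60 min at 30 °C.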

Experiment [2] deals with T2, human recombinant HDAC6 (Homo sapiens, UniProt Q9UBN7).
T2 construct: purchased Calbiochem 382180
T2 sequence (Q9UBN7 1-1215): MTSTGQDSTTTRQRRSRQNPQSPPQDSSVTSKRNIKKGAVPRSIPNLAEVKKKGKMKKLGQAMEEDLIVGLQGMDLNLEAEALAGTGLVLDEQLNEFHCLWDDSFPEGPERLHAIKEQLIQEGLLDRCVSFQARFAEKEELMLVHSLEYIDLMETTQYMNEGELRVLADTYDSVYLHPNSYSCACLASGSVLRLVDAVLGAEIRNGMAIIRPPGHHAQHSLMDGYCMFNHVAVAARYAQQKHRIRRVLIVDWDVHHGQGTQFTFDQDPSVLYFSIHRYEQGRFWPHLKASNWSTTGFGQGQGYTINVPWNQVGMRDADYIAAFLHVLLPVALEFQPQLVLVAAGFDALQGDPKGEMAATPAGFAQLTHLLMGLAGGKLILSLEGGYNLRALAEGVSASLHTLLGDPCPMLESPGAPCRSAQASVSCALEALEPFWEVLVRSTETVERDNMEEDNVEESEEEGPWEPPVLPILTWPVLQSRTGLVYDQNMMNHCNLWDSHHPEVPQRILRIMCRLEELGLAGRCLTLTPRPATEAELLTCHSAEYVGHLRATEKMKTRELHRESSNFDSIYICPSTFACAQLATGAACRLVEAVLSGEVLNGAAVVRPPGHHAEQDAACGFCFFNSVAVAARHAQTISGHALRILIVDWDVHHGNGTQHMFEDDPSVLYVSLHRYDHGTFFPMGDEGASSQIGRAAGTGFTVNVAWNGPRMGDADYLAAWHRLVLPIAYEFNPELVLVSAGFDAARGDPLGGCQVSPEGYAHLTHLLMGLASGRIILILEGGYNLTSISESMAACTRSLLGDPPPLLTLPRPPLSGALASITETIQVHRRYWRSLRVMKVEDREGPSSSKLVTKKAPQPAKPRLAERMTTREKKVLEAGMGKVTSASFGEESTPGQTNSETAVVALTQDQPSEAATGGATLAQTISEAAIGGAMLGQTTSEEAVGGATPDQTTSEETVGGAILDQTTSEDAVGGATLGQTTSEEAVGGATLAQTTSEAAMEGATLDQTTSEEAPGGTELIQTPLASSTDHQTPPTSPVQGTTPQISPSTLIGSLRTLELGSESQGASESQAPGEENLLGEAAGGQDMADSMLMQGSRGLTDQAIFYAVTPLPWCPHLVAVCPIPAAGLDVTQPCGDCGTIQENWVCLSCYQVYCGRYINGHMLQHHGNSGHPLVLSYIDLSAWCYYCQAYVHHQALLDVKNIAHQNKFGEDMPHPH
As to the kind of experiment: HDAC6 enzyme activity inhibition test (HDAC Fluorometric Drug Discovery Kit). The class given is biochemical. As to conditions: for HDAC6 selectivity (fold): HDAC6 over HDAC1; for IC50: human recombinant HDAC6, same protocol as HDAC1. In a few lines: as §1

T1 sequence (Q13547 whole entry): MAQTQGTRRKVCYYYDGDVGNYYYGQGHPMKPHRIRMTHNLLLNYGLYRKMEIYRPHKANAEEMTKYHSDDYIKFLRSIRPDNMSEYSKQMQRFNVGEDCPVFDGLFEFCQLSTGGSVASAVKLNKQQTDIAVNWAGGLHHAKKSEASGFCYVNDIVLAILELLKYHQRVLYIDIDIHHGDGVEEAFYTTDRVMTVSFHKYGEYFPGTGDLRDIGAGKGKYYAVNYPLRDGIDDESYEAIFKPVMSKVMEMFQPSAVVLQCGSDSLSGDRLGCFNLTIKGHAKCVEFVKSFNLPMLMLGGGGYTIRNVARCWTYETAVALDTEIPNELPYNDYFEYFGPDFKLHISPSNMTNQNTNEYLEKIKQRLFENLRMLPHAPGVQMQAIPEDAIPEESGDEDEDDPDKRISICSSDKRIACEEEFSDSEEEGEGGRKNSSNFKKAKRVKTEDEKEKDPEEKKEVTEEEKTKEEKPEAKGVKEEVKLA

For the molecule `CN1CCN(c2nccc(-c3nn(Cc4ccc(-c5nnc(C(F)F)o5)cn4)c(=S)o3)n2)CC1` [Compound 126, 3-[[5-[5-(difluoromethyl)-1,3,4-oxadiazol-2-yl]-2-pyridyl]methyl]-5-[2-(4-methylpiperazin-1-yl)pyrimidin-4-yl]-1,3,4-oxadiazol-2-thione], the 50% inhibitory concentration (IC50) in experiment [1] is > 50000 nM. Besides, in experiment [2], the “HDAC6 selectivity (fold)” value amounted to 977 fold and the IC50 worked out at 51.2 nM.
The like results for `CC(C)N1CCN(c2nccc(-c3nn(Cc4ccc(-c5nnc(C(F)F)o5)cn4)c(=S)o3)n2)CC1` [Compound 127, 3-[[5-[5-(difluoromethyl)-1,3,4-oxadiazol-2-yl]-2-pyridyl]methyl]-5-[2-(4-isopropylpiperazin-1-yl)pyrimidin-4-yl]-1,3,4-oxadiazol-2-thione] were, in that order, > 50000 nM, 879 fold and 56.9 nM.
The like results for `CN(C)Cc1ccc(-c2nn(Cc3ncc(-c4nnc(C(F)F)o4)cc3F)c(=S)o2)s1` [Compound 128, 3-[[5-[5-(difluoromethyl)-1,3,4-oxadiazol-2-yl]-3-fluoro-2-pyridyl]methyl]-5-[5-[(dimethylamino)methyl]-2-thienyl]-1,3,4-oxadiazol-2-thione] were, in that order, > 50000 nM, 583 fold and 85.7 nM.
In the case of `CCN(CC)Cc1ccc(-c2nn(Cc3ncc(-c4nnc(C(F)F)o4)cc3F)c(=S)o2)s1` [Compound 129, 5-[5-(diethylaminomethyl)-2-thienyl]-3-[[5-[5-(difluoromethyl)-1,3,4-oxadiazol-2-yl]-3-fluoro-2-pyridyl]methyl]-1,3,4-oxadiazol-2-thione], the IC50 in experiment [1] is > 50000 nM; in experiment [2] it was 109 nM. The “HDAC6 selectivity (fold)” value in experiment [2] is given as 457 fold.
In the same order, the values of `Fc1cc(-c2nnc(C(F)F)o2)cnc1Cn1nc(-c2ccc(CN3CCC3)s2)oc1=S` [Compound 130, 5-[5-(azetidine-1-ylmethyl)-2-thienyl]-3-[[5-[5-(difluoromethyl)-1,3,4-oxadiazol-2-yl]-3-fluoro-2-pyridyl]methyl]-1,3,4-oxadiazol-2-thione] are > 50000 nM, 66.7 nM and 750 fold.
The like results for `CN(C)Cc1cc(-c2nn(Cc3ccc(-c4nnc(C(F)F)o4)cn3)c(=S)o2)cs1` [Compound 131, 3-[[5-[5-(difluoromethyl)-1,3,4-oxadiazol-2-yl]-2-pyridyl]methyl]-5-[5-[(dimethylamino)methyl]-3-thienyl]-1,3,4-oxadiazol-2-thione] were, in that order, > 50000 nM, 81.7 nM and 612 fold.
In the case of `O=c1oc(-c2ccc(CN3CCC3)cc2)nn1Cc1ccc(-c2nnc(C(F)F)o2)cn1` [Compound 132, 5-[4-(azetidin-1-ylmethyl)phenyl]-3-[[5-[5-(difluoromethyl)-1,3,4-oxadiazol-2-yl]-2-pyridyl]methyl]-1,3,4-oxadiazol-2-one], the IC50 in experiment [1] was > 50000 nM; in experiment [2], 103 nM. Further, in experiment [2], the “HDAC6 selectivity (fold)” value came out at 484 fold.
With `O=c1oc(-c2ccc(CN3CCCCC3)cc2)nn1Cc1ccc(-c2nnc(C(F)F)o2)cn1` [Compound 133, 3-[[5-[5-(difluoromethyl)-1,3,4-oxadiazol-2-yl]-2-pyridyl]methyl]-5-[4-(1-piperidylmethyl)phenyl]-1,3,4-oxadiazol-2-one], the IC50 in experiment [1] was > 50000 nM. In experiment [2], the “HDAC6 selectivity (fold)” value is on record as 442 fold and the IC50 stood at 113 nM.
The like results for `FC(F)c1nnc(-c2ccc(Cn3nc(-c4csc(CN5CCC5)c4)oc3=S)nc2)o1` [Compound 134, 5-[5-(azetidine-1-ylmethyl)-3-thienyl]-3-[[5-[5-(difluoromethyl)-1,3,4-oxadiazol-2-yl]-2-pyridyl]methyl]-1,3,4-oxadiazol-2-thione] were, in that order, > 50000 nM, 680 fold and 73.5 nM.
The like results for `CN1CCc2cc(-c3nn(Cc4ncc(-c5nnc(C(F)F)o5)cc4F)c(=S)o3)ccc2C1` [Compound 135, 3-[[5-[5-(difluoromethyl)-1,3,4-oxadiazol-2-yl]-3-fluoro-2-pyridyl]methyl]-5-(2-methyl-3,4-dihydro-1H-isoquinolin-6-yl)-1,3,4-oxadiazol-2-thione] were, in that order, > 50000 nM, 741 fold and 67.5 nM.
The like results for `CC(C)N1CCc2cc(-c3nn(Cc4ncc(-c5nnc(C(F)F)o5)cc4F)c(=S)o3)ccc2C1` [Compound 136, 3-[[5-[5-(difluoromethyl)-1,3,4-oxadiazol-2-yl]-3-fluoro-2-pyridyl]methyl]-5-(2-isopropyl-3,4-dihydro-1H-isoquinolin-6-yl)-1,3,4-oxadiazol-2-thione] were, in that order, > 50000 nM, 840 fold and 59.5 nM.
As to `Fc1cc(-c2nnc(C(F)F)o2)cnc1Cn1nc(-c2ccc3c(c2)CCN(C2CCC2)C3)oc1=S` [Compound 137, 5-(2-cyclobutyl-3,4-dihydro-1H-isoquinolin-6-yl)-3-[[5-[5-(difluoromethyl)-1,3,4-oxadiazol-2-yl]-3-fluoro-2-pyridyl]methyl]-1,3,4-oxadiazol-2-thione], the concentration for half-maximal inhibition (IC50) in experiment [1] was > 50000 nM. In experiment [2], the “HDAC6 selectivity (fold)” value was determined as 1075 fold and the IC50 is 46.5 nM.
The like results for `Fc1cc(-c2nnc(C(F)F)o2)cnc1Cn1nc(-c2ccc3c(c2)CCN(C2CCCCC2)C3)oc1=S` [Compound 138, 5-(2-cyclohexyl-3,4-dihydro-1H-isoquinolin-6-yl)-3-[[5-[5-(difluoromethyl)-1,3,4-oxadiazol-2-yl]-3-fluoro-2-pyridyl]methyl]-1,3,4-oxadiazol-2-thione] were, in that order, > 50000 nM, 1042 fold and 48.7 nM.
Regarding `CN1CCc2cc(-c3nn(Cc4ccc(-c5nnc(C(F)F)o5)cn4)c(=S)o3)sc2C1` [Compound 139, 3-[[5-[5-(difluoromethyl)-1,3,4-oxadiazol-2-yl]-2-pyridyl]methyl]-5-(6-methyl-5,7-dihydro-4H-thieno[2,3-c]pyridin-2-yl)-1,3,4-oxadiazol-2-thione], the values for the IC50 in experiment [1] and in experiment [2] were > 50000 nM and 90.6 nM, respectively. In experiment [2], the “HDAC6 selectivity (fold)” value is 552 fold.
As for `CCN1CCc2cc(-c3nn(Cc4ccc(-c5nnc(C(F)F)o5)cn4)c(=S)o3)sc2C1` [Compound 140, 3-[[5-[5-(difluoromethyl)-1,3,4-oxadiazol-2-yl]-2-pyridyl]methyl]-5-(6-ethyl-5,7-dihydro-4H-thieno[2,3-c]pyridin-2-yl)-1,3,4-oxadiazol-2-thione], the half-maximal inhibitory concentration (IC50) in experiment [1] is > 50000 nM. In experiment [2], the “HDAC6 selectivity (fold)” value was 1114 fold and the half-maximal inhibitory concentration (IC50) turned out to be 44.9 nM.
The like results for `CC(C)N1CCc2cc(-c3nn(Cc4ccc(-c5nnc(C(F)F)o5)cn4)c(=S)o3)sc2C1` [Compound 141, 3-[[5-[5-(difluoromethyl)-1,3,4-oxadiazol-2-yl]-2-pyridyl]methyl]-5-(6-isopropyl-5,7-dihydro-4H-thieno[2,3-c]pyridin-2-yl)-1,3,4-oxadiazol-2-thione] were, in that order, > 50000 nM, 893 fold and 56 nM.
In the same order, the values of `O=c1oc(-c2ccccc2)cn1Cc1ccc(-c2nnc(C(F)F)o2)cn1` [Compound 142, 3-((5-(5-(difluoromethyl)-1,3,4-oxadiazol-2-yl)pyridin-2-yl)methyl)-5-phenyloxazol-2(3H)-one] are > 50000 nM, 484 fold and 103 nM.
In the case of `O=c1oc(-c2cccc(F)c2)cn1Cc1ccc(-c2nnc(C(F)F)o2)cn1` [Compound 143, 3-((5-(5-(difluoromethyl)-1,3,4-oxadiazol-2-yl)pyridin-2-yl)methyl)-5-(3-fluorophenyl)oxazol-2(3H)-one], the half-inhibitory concentration (IC50) was > 50000 nM in experiment [1] and 134 nM in experiment [2]. Also, the “HDAC6 selectivity (fold)” value in experiment [2] stood at 374 fold.

For orientation: IC50 means the point on the concentration scale where inhibition reaches its midpoint.
